Results: patent US20210137828A1, “Cannabidiol Sublingual Spray Formulations” (priority 2019, published 2021)

What was measured:
[1] = tested on: non-tumorigenic, mammary cells; conditions: at concentrations effective in tumor cells; cited from earlier work
[2] = tested on: vascular damage, vascular hyperpermeability; conditions: high glucose environment, inflammation or induction of type 2 diabetes in animal models; cited from earlier work
[3] = tested on: human experimental psychosis; conditions: cited from earlier work
breast tumor cell lines = conditions: different breast tumor cell lines; cited from earlier work
toxin-induced vomiting = conditions: low doses; cited from earlier work
[4] = tested on: chronic inflammatory and neuropathic pain; conditions: rodents; cited from earlier work
[5] = Impurity stability of CBD sublingual spray formulation; format: physicochemical; set-up: unit not given here
Method: Stability data was established for formulations with 25 mg/spray, 0.2% sucralose, 0.4% strawberry flavor, and 10% ethanol in the presence of MCT oil. […] This can be extrapolated to assigning a one year expiration at room temperature for lipid based formulation. See Table 1 through 2 for stability data of impurities and assay.

[6] = 700 milligrams per day for 6 weeks; cited from earlier work
[7] = tested on: estrogen receptor-positive and estrogen receptor-negative breast cancer cells; conditions: cited from earlier work
incidence of diabetes = conditions: non-obese diabetic mice, cited from earlier work
non-cancer cells = conditions: compared with breast tumor cell lines; cited from earlier work
seizures = conditions: doses up to 25 milligrams per kilogram of body weight; cited from earlier work
seizure frequency = conditions: cited from earlier work
anxiety = conditions: patients with social anxiety disorder; cited from earlier work

## C=C(C)[C@@H]1CCC(C)=C[C@H]1c1c(O)cc(CCCCC)cc1O [CBD, cannabidiol]
[1]
  Effect on non-tumorigenic mammary cells: little effect
[2]
  Protection against vascular damage: protects against the vascular damage
[3]
  Effect on human experimental psychosis: prevents human experimental psychosis
Breast tumor cell lines
  Inhibition of growth of breast tumor cell lines: potently and selectively inhibited the growth
toxin-induced vomiting
  Effect on toxin-induced vomiting: suppresses toxin-induced vomiting
[4]
  Analgesic tolerance: without causing analgesic tolerance
  Suppression of chronic inflammatory and neuropathic pain: significantly suppressed chronic inflammatory and neuropathic pain
[5]; T = 0
  CBD peak (RRT 1.00) in impurity stability data: 99.24
[5]; T = 2wk 25 C.
  CBD peak (RRT 1.00) in impurity stability data: 99.05
[5]; T = 2wk 40 C.
  CBD peak (RRT 1.00) in impurity stability data: 98.60
[5]; T = 4wk 25 C.
  CBD peak (RRT 1.00) in impurity stability data: 98.75
[5]; T = 4wk 40 C.
  CBD peak (RRT 1.00) in impurity stability data: 97.96
[6]
  Overt toxicity in humans: did not show any overt toxicity
[7]
  Cell death of breast cancer cells: induced a concentration-dependent cell death
Incidence of diabetes; 86 percent in non-treated mice
  Incidence of diabetes: 30%
Incidence of diabetes
  Insulitis, histological examination of pancreatic islets: significantly reduced insulitis
  Plasma levels of pro-inflammatory cytokines: significant reduction
non-cancer cells
  Potency in non-cancer cells: significantly less potency in non-cancer cells
seizures
  Tolerability: generally well-tolerated
Seizure frequency; 16 of 19 parents
  Parents reporting a reduction in their child's seizure frequency: 84%
Seizure frequency; eight of 19 parents
  Parents reporting greater than 80 percent reduction in seizure frequency: 42%
Seizure frequency; parent survey, children with epilepsy
  Side effects: drowsiness and fatigue
Seizure frequency; six of 19 parents
  Parents reporting 25-60 percent seizure reduction: 32%
Seizure frequency; two of 19 parents
  Parents reporting complete seizure freedom: 11%
anxiety
  Effect on anxiety: reduce anxiety
